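Results reflect a 48-hour exposure of cells in 96-well plates to compound at five concentrations. GI50 marks 50% less growth. The concentration for full growth arrest is given as TGI.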

The subject of one test is HCT-116 colon. Description: NCI anticancer screen, dose series, 48 h.
Regarding `C1C[OH+]CCNCC[OH+]CC[OH+]CCN1.[Cl-].[Pt+4]`, the GI50 is over 100 µM and the TGI was over 100 µM.
On to `CC(=O)c1sc(-c2nc(C)c(C(=O)/C=C\c3ccc(/C=C\C(=O)c4sc(-c5nc(C)c(C(C)=O)s5)nc4C)cc3)s2)nc1C`, for which the TGI was over 100 µM.
`COC(=O)/C(C)=C/[N+](=O)[O-]` displayed a TGI of 20.8 µM.
On the same count and under the same terms, the same measure for `Cc1ccc(C2(O)CC(c3ccc([N+](=O)[O-])o3)=NN2C(=O)COc2ccc(Cl)cc2)cc1` (stereo unspecified): 22.2 µM; for `CC1=NN(C(=O)CC(=O)N(C(=O)c2ccccc2Cl)c2ccc(C)cc2)C(=O)C1N=Nc1ccc([N+](=O)[O-])cc1` (stereo unspecified): 38.6 µM.
The same measure, in the same setting: the same measure for `COc1cccc(-n2c3nc(=O)n(C)c(=O)c-3nc3ccccc32)c1`: over 100 µM; for `CC(C)(C=O)CC(C#N)/C(=N\NC(N)=O)C(=O)Nc1ccccc1C(N)=O` (stereo unspecified): over 100 µM; for `Cc1cc(C)c(C2[C@H]3C(=O)N(c4ccc(Cc5ccc(N6C(=O)[C@@H]7ON(c8ccccc8)C(c8c(C)cc(C)cc8C)[C@@H]7C6=O)cc5)cc4)C(=O)[C@H]3ON2c2ccccc2)c(C)c1` (stereo partly specified): over 100 µM.
The same measure, in the same setting: then `COC(=O)OCC1OC(N2C(=O)NC(=O)C(Br)C2N=[N+]=[N-])CC1OC(=O)OC` (stereo unspecified), with over 100 µM.
For `CC12CCCCC1(C)C2Sc1ccccc1` (stereo unspecified), the TGI is over 100 µM.
On the same count and under the same terms, the same measure for `CCCCOC(=O)NC(=O)c1cn(CCCOC(=O)NCCCCCCNC(=O)OCCCn2cc(C(=O)NC(=O)OCCCC)c(=O)[nH]c2=O)c(=O)[nH]c1=O`: over 100 µM.
In the case of `C[C@@]12CCCc3coc(c31)C(=O)c1cc3c(cc12)C(=O)C=CC3=O`, the TGI was over 1 µM.
Same read-out and setting: then `COc1cc(C)c2c(c1C)OC(=O)c1c(C)c(Cl)c(O)c(C=O)c1O2`, with 54.9 µM; and `COC(=O)/C(C=O)=C/Sc1ccccc1`, with over 100 µM; and `O=C1CC2C(=O)N(Cc3ccccc3)C1C=C2S(=O)(=O)c1ccccc1` (stereo unspecified), with over 100 µM.
`N.N.N.N.[Cl-].[Co+3].[N-]=[N+]=[N-].[N-]=[N+]=[N-]`: the GI50 is over 100 µM and the TGI was over 100 µM.
The molecule `O=c1[nH]c2cc(Cl)ccc2nc1/C(=N\O)C(O)c1ccc(Cl)cc1Cl` (stereo unspecified) returned a TGI of over 100 µM.
For the molecule `CC(C)CCCC(C)[C@H]1CCC2[C@H]3C(CC[C@@]21C)[C@@]1(C)CCC=C[C@]12C[C@@H]2[C@@H]3O` (stereo partly specified), the TGI is over 100 µM.
Consider `C=C1C(=O)O[C@H]2[C@H]1CC/C(COC(=O)c1ccc(Cl)nc1)=C\CC[C@@]1(C)O[C@@H]21`, for which the GI50 is 1.45 µM and the TGI is 2.84 µM.
As for `O=C(Nc1cc(Cl)ccc1Cl)C(=O)C(c1cnc2ccccc2n1)[N+](=O)[O-]` (stereo unspecified), the TGI is over 100 µM.
In the case of `Cc1cc[c-]cc1.Fc1c[c-]c(-c2ccccn2)c(F)c1.[Pt+2].c1ccc(P(C[PH+](c2ccccc2)c2ccccc2)c2ccccc2)cc1`, the GI50 is 2.65 µM and the TGI was determined as 11.2 µM.
For the molecule `COc1cc2ncn(-c3cc(OCCc4ccccc4)c(C(N)=O)s3)c2cc1OC`, the GI50 is 24.6 µM and the TGI was over 25 µM.
`Nc1nc(CCl)nc(Nc2ccccc2)n1` gave a TGI of 43.5 µM.
On the same count and under the same terms, the same measure for `COc1ccc(OC)c2c(/C=C/c3ccc(N(C)C)cc3)ccnc12`: 8.11 µM; for `CN[C@@H](C)[C@H](NC)c1ccccc1`: over 100 µM; for `O=S1OC2(c3ccccc3-c3ccccc32)c2ccccc21` (stereo unspecified): over 100 µM.

A further test has as its system DMS 273 small cell lung. Description: NCI anticancer screen, dose series, 48 h.
`CN1NC(=Nc2ccccc2)Sc2c1cnn(-c1ccccc1)c2=O` yielded a TGI of over 100 µM.
For `C1C[OH+]CCNCC[OH+]CC[OH+]CCN1.[Cl-].[Pt+4]`, the GI50 is over 100 µM and the TGI was over 100 µM.
As for `CC(=O)c1sc(-c2nc(C)c(C(=O)/C=C\c3ccc(/C=C\C(=O)c4sc(-c5nc(C)c(C(C)=O)s5)nc4C)cc3)s2)nc1C`, the TGI is over 100 µM.
Still for that read-out and setting: the same measure for `COC(=O)/C(C)=C/[N+](=O)[O-]`: 34.6 µM.
On the same count and under the same terms, then `Cc1ccc(C2(O)CC(c3ccc([N+](=O)[O-])o3)=NN2C(=O)COc2ccc(Cl)cc2)cc1` (stereo unspecified), with over 62.1 µM; and `CC1=NN(C(=O)CC(=O)N(C(=O)c2ccccc2Cl)c2ccc(C)cc2)C(=O)C1N=Nc1ccc([N+](=O)[O-])cc1` (stereo unspecified), with over 95.7 µM; and `COc1cccc(-n2c3nc(=O)n(C)c(=O)c-3nc3ccccc32)c1`, with 30.9 µM.
Same read-out and setting: then `Cc1cc(C)c(C2[C@H]3C(=O)N(c4ccc(Cc5ccc(N6C(=O)[C@@H]7ON(c8ccccc8)C(c8c(C)cc(C)cc8C)[C@@H]7C6=O)cc5)cc4)C(=O)[C@H]3ON2c2ccccc2)c(C)c1` (stereo partly specified), with over 100 µM.
The molecule `COC(=O)OCC1OC(N2C(=O)NC(=O)C(Br)C2N=[N+]=[N-])CC1OC(=O)OC` (stereo unspecified) showed a TGI of over 100 µM.
The same measure, in the same setting: then `CC12CCCCC1(C)C2Sc1ccccc1` (stereo unspecified), with over 100 µM; and `CCCCOC(=O)NC(=O)c1cn(CCCOC(=O)NCCCCCCNC(=O)OCCCn2cc(C(=O)NC(=O)OCCCC)c(=O)[nH]c2=O)c(=O)[nH]c1=O`, with over 100 µM.
Same read-out and setting: then `C[C@@]12CCCc3coc(c31)C(=O)c1cc3c(cc12)C(=O)C=CC3=O`, with over 1 µM.
On the same count and under the same terms, then `COc1cc(C)c2c(c1C)OC(=O)c1c(C)c(Cl)c(O)c(C=O)c1O2`, with 37.2 µM; and `C=CCNC(=O)N(CCC)CCCCC(NC(C)=O)C(=O)NCc1ccccc1` (stereo unspecified), with over 100 µM; and `COC(=O)/C(C=O)=C/Sc1ccccc1`, with 53.2 µM.
For `N.N.N.N.[Cl-].[Co+3].[N-]=[N+]=[N-].[N-]=[N+]=[N-]`, the GI50 is over 100 µM and the TGI was over 100 µM.
Regarding `O=c1[nH]c2cc(Cl)ccc2nc1/C(=N\O)C(O)c1ccc(Cl)cc1Cl` (stereo unspecified), the TGI was over 100 µM.
On the same count and under the same terms, the same measure for `CC(C)CCCC(C)[C@H]1CCC2[C@H]3C(CC[C@@]21C)[C@@]1(C)CCC=C[C@]12C[C@@H]2[C@@H]3O` (stereo partly specified): over 100 µM; for `Nc1nc(CCl)nc(Nc2ccccc2)n1`: 14 µM; for `CN[C@@H](C)[C@H](NC)c1ccccc1`: over 100 µM.

Another test relates to SNB-78 CNS. In words: NCI anticancer screen, dose series, 48 h.
`COc1cc2ccc3c4cc(OC)c(OC(C)C)cc4cnc3c2cc1OC` gave a TGI of over 100 µM.
Regarding `CC(=O)c1sc(-c2nc(C)c(C(=O)/C=C\c3ccc(/C=C\C(=O)c4sc(-c5nc(C)c(C(C)=O)s5)nc4C)cc3)s2)nc1C`, the TGI was over 100 µM.
Consider `COC(=O)/C(C)=C/[N+](=O)[O-]`, for which the TGI came to 49.8 µM.
Still for that read-out and setting: then `Cc1ccc(C2(O)CC(c3ccc([N+](=O)[O-])o3)=NN2C(=O)COc2ccc(Cl)cc2)cc1` (stereo unspecified), with 58.9 µM; and `CC1=NN(C(=O)CC(=O)N(C(=O)c2ccccc2Cl)c2ccc(C)cc2)C(=O)C1N=Nc1ccc([N+](=O)[O-])cc1` (stereo unspecified), with over 100 µM; and `COc1cccc(-n2c3nc(=O)n(C)c(=O)c-3nc3ccccc32)c1`, with over 100 µM.
Still for that read-out and setting: then `CC(C)(C=O)CC(C#N)/C(=N\NC(N)=O)C(=O)Nc1ccccc1C(N)=O` (stereo unspecified), with over 100 µM; and `Cc1cc(C)c(C2[C@H]3C(=O)N(c4ccc(Cc5ccc(N6C(=O)[C@@H]7ON(c8ccccc8)C(c8c(C)cc(C)cc8C)[C@@H]7C6=O)cc5)cc4)C(=O)[C@H]3ON2c2ccccc2)c(C)c1` (stereo partly specified), with over 100 µM.
